# Calls of active or inactive are those of the source. The rule behind the calls is not given here.
# How the values were obtained:
# [1] = target: T1, Relaxin receptor 1 (Homo sapiens, UniProt Q9HBX9); test: Agonist activity at RXFP1 receptor (unknown origin) expressed in HEK293 cells assessed as stimulation of cAMP production incubated for 30 mins by TR-FRET based HTRF assay; assay type: functional, cell-based
# T1 sequence (Q9HBX9 whole entry): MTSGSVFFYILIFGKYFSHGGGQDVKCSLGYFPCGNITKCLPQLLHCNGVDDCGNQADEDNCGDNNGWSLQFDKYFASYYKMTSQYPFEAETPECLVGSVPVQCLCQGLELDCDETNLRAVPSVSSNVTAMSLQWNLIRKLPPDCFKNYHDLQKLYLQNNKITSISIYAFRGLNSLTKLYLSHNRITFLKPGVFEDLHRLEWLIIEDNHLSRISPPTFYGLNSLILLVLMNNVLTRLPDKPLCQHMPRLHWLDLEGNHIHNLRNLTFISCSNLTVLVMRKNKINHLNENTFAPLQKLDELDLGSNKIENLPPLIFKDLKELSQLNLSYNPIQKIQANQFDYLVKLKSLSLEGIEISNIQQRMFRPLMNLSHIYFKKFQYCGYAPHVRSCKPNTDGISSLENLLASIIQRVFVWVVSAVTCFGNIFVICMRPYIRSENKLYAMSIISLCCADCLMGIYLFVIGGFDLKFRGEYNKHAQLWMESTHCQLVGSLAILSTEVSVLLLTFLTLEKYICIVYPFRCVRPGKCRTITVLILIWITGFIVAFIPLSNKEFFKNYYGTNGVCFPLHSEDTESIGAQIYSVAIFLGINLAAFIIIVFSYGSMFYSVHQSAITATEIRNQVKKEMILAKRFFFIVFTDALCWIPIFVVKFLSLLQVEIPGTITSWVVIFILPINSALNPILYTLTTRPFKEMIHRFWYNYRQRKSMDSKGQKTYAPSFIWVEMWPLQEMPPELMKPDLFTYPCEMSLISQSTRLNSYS
# [2] = target: T2, Relaxin receptor 1 (Homo sapiens) (UniProt Q9HBX9); test: Agonist activity at RXFP1 receptor (unknown origin) expressed in HEK293 cells assessed as stimulation of cAMP production incubated for 30 mins by TR-FRET based HTRF assay relative to forskolin; assay type: functional, cell-based
# T2 sequence (whole entry): T1 sequence (Q9HBX9 whole entry)
# [3] = Stimulation of VEGF gene expression in human THP1 cells assessed as change in VEGF mRNA level incubated for 2 hrs by quantitative real time RT-PCR method relative to control; assay type: functional, cell-based; settings: THP-1
# [4] = target: T1, Relaxin receptor 1; test: Agonist activity at RXFP1 receptor in human THP1 cells assessed as stimulation of cAMP production incubated for 30 mins by HTRF assay; assay type: functional, cell-based, THP-1
# [5] = target: T3, Relaxin receptor 2 (Homo sapiens, UniProt Q8WXD0); test: Agonist activity at RXFP2 receptor (unknown origin) expressed in HEK293 cells assessed as stimulation of cAMP production incubated for 30 mins by HTRF assay; assay type: functional, cell-based
# T3 sequence (Q8WXD0 whole entry): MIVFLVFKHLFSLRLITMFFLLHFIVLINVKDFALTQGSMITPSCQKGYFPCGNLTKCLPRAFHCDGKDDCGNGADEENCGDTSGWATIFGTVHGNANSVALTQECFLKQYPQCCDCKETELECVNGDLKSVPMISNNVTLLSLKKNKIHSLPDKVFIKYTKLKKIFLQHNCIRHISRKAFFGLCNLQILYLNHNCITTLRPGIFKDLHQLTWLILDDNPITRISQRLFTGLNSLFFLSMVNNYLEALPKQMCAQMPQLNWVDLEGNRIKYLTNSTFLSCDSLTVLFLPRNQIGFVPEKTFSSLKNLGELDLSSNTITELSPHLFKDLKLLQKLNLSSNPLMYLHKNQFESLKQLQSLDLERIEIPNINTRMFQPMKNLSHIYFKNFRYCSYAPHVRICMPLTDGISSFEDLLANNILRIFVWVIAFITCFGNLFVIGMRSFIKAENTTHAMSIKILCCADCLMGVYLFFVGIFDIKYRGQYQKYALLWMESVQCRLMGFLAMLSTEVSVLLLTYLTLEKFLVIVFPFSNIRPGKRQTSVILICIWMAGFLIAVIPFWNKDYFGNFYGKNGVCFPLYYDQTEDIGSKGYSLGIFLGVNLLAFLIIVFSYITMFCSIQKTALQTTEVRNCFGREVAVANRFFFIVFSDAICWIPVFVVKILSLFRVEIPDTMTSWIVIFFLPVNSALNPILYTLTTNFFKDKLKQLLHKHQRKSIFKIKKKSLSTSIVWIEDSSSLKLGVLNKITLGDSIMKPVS
# [6] = target: T3, Relaxin receptor 2; test: Agonist activity at RXFP2 receptor (unknown origin) expressed in HEK293 cells assessed as stimulation of cAMP production incubated for 30 mins by HTRF assay relative to control; assay type: functional, cell-based
# [7] = target: T4, Vasopressin V1b receptor (Homo sapiens, UniProt P47901); test: Agonist activity at vasopressin receptor 1b (unknown origin) expressed in HEK293 cells assessed as stimulation of cAMP production incubated for 30 mins by HTRF assay; assay type: functional, cell-based
# T4 sequence (P47901 whole entry): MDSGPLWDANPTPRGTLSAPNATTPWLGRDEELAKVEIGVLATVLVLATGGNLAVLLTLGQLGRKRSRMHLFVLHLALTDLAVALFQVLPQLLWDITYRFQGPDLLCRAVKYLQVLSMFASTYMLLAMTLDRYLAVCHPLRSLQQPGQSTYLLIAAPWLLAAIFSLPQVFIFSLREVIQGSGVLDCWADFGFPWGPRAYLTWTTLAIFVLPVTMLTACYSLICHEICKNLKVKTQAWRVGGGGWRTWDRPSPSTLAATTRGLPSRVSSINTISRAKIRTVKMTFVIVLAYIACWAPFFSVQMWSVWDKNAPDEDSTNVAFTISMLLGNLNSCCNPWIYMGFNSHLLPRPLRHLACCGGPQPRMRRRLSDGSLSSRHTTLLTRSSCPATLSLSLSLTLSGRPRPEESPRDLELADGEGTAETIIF
# [8] = target: T5, Vasopressin V1b receptor (Homo sapiens) (UniProt P47901); test: Agonist activity at vasopressin receptor 1b (unknown origin) expressed in HEK293 cells assessed as stimulation of cAMP production incubated for 30 mins by HTRF assay relative to control; assay type: functional, cell-based
# T5 sequence (whole entry): T4 sequence (P47901 whole entry)
# [9] = tested on: HEK293; test: Cytotoxic activity against HEK293 cells assessed as reduction in cell viability by measuring ATP level incubated for 72 hrs by ATP cytotoxicity assay; assay type: cell-based, Homo sapiens
# [10] = Cytotoxic activity against HEK293 cells assessed as reduction in cell viability by measuring ATP level incubated for 72 hrs by ATP cytotoxicity assay relative to control; assay type: cell-based; settings: human, read-out: %max
# [11] = Solubility in PBS buffer; assay type: physicochemical
# [12] = Half life in mouse liver microsomes; assay type: ADME
# [13] = target: T2, Relaxin receptor 1 (Homo sapiens); test: Agonist activity at RXFP1 receptor (unknown origin) expressed in HEK293 cells assessed as increase cell impedance at 250 to 750 nM measured every 10 to 30 secs for 1 hr by real time cell analyzer method; assay type: functional, cell-based
# [14] = Homo sapiens, HEK293, 72 h, read-out: EC50
SMILES,AC50 ([1]; read-out: AC50) [nM],%max [2],fold change (FC) [3],EC50 [4] [nM],%max [6] [%],AC50 [7],%max [8] [%],Emax at 72 h [10] [%],solubility [11] [µM],further results
COc1ccccc1C(=O)Nc1ccccc1C(=O)Nc1cccc(SC(F)(F)F)c1,297,99%,1.2,523,–,–,–,–,–,–
CCOc1ccccc1C(=O)Nc1ccccc1C(=O)Nc1cccc(C(F)(F)F)c1,265,94%,1.9,471,–,–,–,–,–,–
O=C(Nc1ccc2cc[nH]c2c1)c1ccccc1NC(=O)C1CCCCC1,–,inactive,–,–,47,Not Active,< 30,< 30,1.7,AC50 ([1]; hek293): Not Active; AC50 ([5]; read-out: AC50): 9400 nM; EC50 ([9]; hek293): Non-toxic
O=C(Nc1cccc(C(F)(F)F)c1)c1ccccc1NC(=O)C1CCCCC1,47,92%,–,–,< 30,Not Active,< 30,-53,5.3,"AC50 ([5]; hek293): Not Active; EC50 [9, 14]: 59300 nM"
O=C(Nc1ccccc1C(=O)Nc1cccc(C(F)(F)F)c1)c1cccnc1,5930,95%,–,–,< 30,Not Active,< 30,85,7,"AC50 ([5]; hek293): Not Active; EC50 [9, 14]: 9400 nM"
COc1ccccc1C(=O)Nc1ccccc1C(=O)Nc1cccc(S(=O)(=O)C(F)(F)F)c1,188,99%,1.4,358,–,–,–,–,–,–
O=C(Nc1ccccc1C(=O)Nc1cccc(C(F)(F)F)c1)c1ccncc1,7470,51%,–,–,< 30,Not Active,< 30,83,17,"AC50 ([5]; hek293): Not Active; EC50 [9, 14]: 9400 nM"
O=C(Nc1ccccc1C(=O)Nc1cccc(C(F)(F)F)c1)c1ccno1,14900,93%,–,–,38,Not Active,< 30,-73,< 1.1,AC50 ([5]; read-out: AC50): 7470 nM
CCCOc1ccccc1C(=O)Nc1ccccc1C(=O)Nc1cccc(S(=O)(=O)C(F)(F)F)c1,52,98%,1.5,105,–,–,–,–,–,–
O=C(Nc1cccc(S(=O)(=O)C(F)(F)F)c1)c1ccccc1NC(=O)c1ccccc1OCC(F)(F)F,67,97%,1.3,107,–,–,–,–,–,–
CCOc1ccccc1C(=O)Nc1ccccc1C(=O)Nc1cccc(S(=O)(=O)C(F)(F)F)c1,–,99%,2.3,362,–,–,–,–,–,–
O=C(Nc1cccc(C(F)(F)F)c1)c1ccccc1NC(=O)c1cccc2nc[nH]c12,11800,90%,–,–,< 30,Not Active,< 30,-76,6.3,AC50 ([5]; hek293): Not Active
O=C(Nc1ccccc1C(=O)Nc1cccc(C(F)(F)F)c1)c1cccs1,1880,88%,–,–,< 30,Not Active,< 30,-78,3.3,AC50 ([5]; hek293): Not Active; half-life [12]: 1.67 h
CCCCOc1ccccc1C(=O)Nc1ccccc1C(=O)Nc1cccc(S(=O)(=O)C(F)(F)F)c1,47,98%,1.6,124,–,–,–,–,–,Activity [13]: Active
O=C(Nc1ccccc1C(=O)Nc1cccc(C(F)(F)F)c1)c1ccc2c(c1)OCO2,6660,81%,–,–,54,Not Active,< 30,-31,2.9,"AC50 ([5]; read-out: AC50): 3340 nM; EC50 [9, 14]: 3740 nM"
O=C(NCc1ccc(C(F)(F)F)cc1)c1ccccc1NC(=O)C1CCCCC1,–,inactive,–,–,–,–,–,–,–,AC50 ([1]; hek293): Not Active
COc1ccc(NC(=O)c2ccccc2NC(=O)C2CCCCC2)cc1,–,inactive,–,–,–,–,–,–,–,AC50 ([1]; hek293): Not Active
O=C(Nc1ccccc1C(=O)Nc1cccc(C(F)(F)F)c1)c1cccc(Cl)c1,1880,96%,–,–,–,–,–,–,–,–
CCOc1ccccc1C(=O)Nc1ccccc1C(=O)Nc1ccncc1,74700,64%,–,–,–,–,–,–,–,–
CN(C)CCCOc1ccccc1C(=O)Nc1cccc(C(F)(F)F)c1,–,inactive,–,–,–,–,–,–,–,AC50 ([1]; hek293): Not Active
CC(C)(C)OC(=O)Nc1ccccc1C(=O)Nc1cccc(C(F)(F)F)c1,5290,79%,–,–,–,–,–,–,–,–
